Measured values: PMC6119295 (International Journal of Neuropsychopharmacology, 2018)

Experiments:
C57BL6 mice [1] = settings: mouse, in vivo
C57BL6 mice [2] = assay: Morphine-induced analgesia in a hot plate assay; assay type: in vivo, mouse; settings: dose used in prolactin/rotarod experiments; data not shown
rodents = settings: ref Valenza et al., 2017; cited from earlier work
[3] = ref White et al., 2015, cited from earlier work
caudate putamen = settings: 3.2 mg/kg, ref Zhang et al., 2005, cited from earlier work
MOR = MOR (Rattus norvegicus, UniProt P33535); assay: Opioid receptor binding, MOR
DOR = DOR (Homo sapiens, UniProt P41143); assay: Opioid receptor binding, DOR
C57BL6 mice [4] = settings: mouse, in vivo; remark: listed apart in the source
dopamine D2 receptor = settings: ref Spetea et al., 2012; cited from earlier work
mice = settings: cited from earlier work
[5] = up to 10 mg/kg; ref Erli et al. 2017; cited from earlier work

Chain of MOR (P33535 whole entry): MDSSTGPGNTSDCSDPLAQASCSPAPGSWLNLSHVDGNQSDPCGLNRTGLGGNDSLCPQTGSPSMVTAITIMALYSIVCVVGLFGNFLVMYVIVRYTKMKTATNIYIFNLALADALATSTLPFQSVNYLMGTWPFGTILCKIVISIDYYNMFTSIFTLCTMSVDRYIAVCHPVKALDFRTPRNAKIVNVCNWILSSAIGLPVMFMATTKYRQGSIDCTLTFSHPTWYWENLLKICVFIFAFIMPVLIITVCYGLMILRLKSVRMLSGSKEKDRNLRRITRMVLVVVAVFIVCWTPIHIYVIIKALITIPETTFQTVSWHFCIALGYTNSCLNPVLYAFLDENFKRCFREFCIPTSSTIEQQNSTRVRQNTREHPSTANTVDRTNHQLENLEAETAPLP
Chain of DOR (P41143 whole entry): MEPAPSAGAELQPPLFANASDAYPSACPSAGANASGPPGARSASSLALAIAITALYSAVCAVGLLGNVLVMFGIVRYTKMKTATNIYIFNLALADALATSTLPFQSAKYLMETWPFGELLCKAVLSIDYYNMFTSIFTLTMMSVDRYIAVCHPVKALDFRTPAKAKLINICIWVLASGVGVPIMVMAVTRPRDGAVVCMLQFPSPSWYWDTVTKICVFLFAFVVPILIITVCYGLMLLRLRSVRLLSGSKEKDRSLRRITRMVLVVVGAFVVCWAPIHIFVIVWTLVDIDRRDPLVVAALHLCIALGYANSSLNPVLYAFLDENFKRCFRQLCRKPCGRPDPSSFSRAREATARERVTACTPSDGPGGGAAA

NC(=O)c1ccc(Oc2ccc(CN3CCC[C@H]3c3cccc(F)c3)cc2)c(F)c1 [LY2444296, (S)-3-fluoro-4-(4-((2-(3-fluorophenyl)pyrrolidin-1-yl)methyl)phenoxy)benzamide]
Blockade of U50,488-stimulated prolactin release (C57BL6 mice [1]): blocks the effects | Effect of antagonist alone on serum prolactin (C57BL6 mice [1]): no effect on prolactin | Effect on morphine-induced analgesia in hot plate assay (C57BL6 mice [2]): does not inhibit morphine-induced analgesia | Duration of action (short-acting) (rodents): < 48 h

COC(=O)[C@@H]1C[C@H](OC(=O)CSC#N)C(=O)[C@H]2[C@@]1(C)CC[C@H]1C(=O)O[C@H](c3ccoc3)C[C@]21C [RB-64]
Effect on the rotarod [3]: did not have an effect on the rotarod

COC(=O)[C@@H]1C[C@H](OC(C)=O)C(=O)[C@H]2[C@@]1(C)CC[C@H]1C(=O)O[C@H](c3ccoc3)C[C@]21C [salvinorin A]
Duration of decrease of extracellular dopamine (caudate putamen; after administration): at least 3 hours | Decrease of extracellular dopamine in the caudate putamen (caudate putamen; systemic): over 50% | Time after injection at which rotarod incoordination begins returning to normal ([3]; 3 mg/kg): ≤ 30 min

Oc1cccc(CCN(CCc2ccccc2)CC2CCC2)c1 [MCBPHA, N-methylcyclobutyl-N-phenylethyl-N-3-hydroxyphenylethyl-amine]
Ki (MOR): 270 nM | Ki (DOR): 3000 nM | Effect on serum prolactin after LY2444296 pretreatment (C57BL6 mice [1]): blocked the effect | Rotarod incoordination after LY2444296 pretreatment (C57BL6 mice [4]): blocked | Affinity and agonism at the dopamine D2 receptor (dopamine D2 receptor): low affinity and no agonism | Potency in peripheral analgesia (acetic acid writhing) (mice; mice, ref Spetea et al., 2012): equally potent as the well-characterized KOR agonist U50,488 | Efficacy in an analgesia assay in mice (mice; ref Spetea et al. 2012, Erli et al. 2017): efficacy | Locomotor defects in the rotarod assay [5]: neither of these compounds caused locomotor defects
